For one assay, the system named is USPSa-S244A. Kind of assay: MicroScale Thermophoresis (initial fluorescence change) nucleotide binding. Also on record: species or system Staphylococcus aureus. The note with it: S244A mutant; for Dissociation Constant (KD) ± Standard Deviation: MST, initial fluorescence. As to the method:
(§1) The ligand-binding specificity of USPSa, the role of USPSa residues in c-di-AMP binding, and the c-di-AMP binding affinity of USP homologs were biochemically determined by MST, using purified WT and mutant proteins. […] For these MST experiments, WT and active-site mutants of His6-USPSa were first fluorescently labeled using a RED-Tris NTA Monolith His-Tag labeling kit (Nanotemper, Technologies, Inc). For labeling, the proteins were diluted to a concentration of 800 nM in binding buffer (50 mM potassium phosphate, pH 8.0, 800 mM NaCl, and 0.05% Tween 20), mixed with an equal volume of RED-Tris-NTA dye (80 nM), and incubated on ice in the dark for 30 min. The stock solutions of ligands (c-di-AMP, c-di-GMP, ATP, AMP, c-AMP) were serially diluted with the binding buffer in a 1:1 ratio during each dilution step. The labeled proteins and the ligand dilutions were then mixed in a 1:1 ratio and incubated on ice in the dark for 30 min.
(§2) The samples were then loaded into Monolith standard-treated capillaries in triplicate, and the changes in fluorescence were measured with 40% LED power and 20% IR-laser power for an on-time of 20-s at 23 °C. To determine the binding affinity, the ligand-dependent changes in the intensity of the initial fluorescence, or the thermophoretic mobility, were analyzed according to the law of mass action in a standard fitting mode of MO.Affinity analysis software (version 2.3). To exclude the possibility of nonspecific binding of the ligand to the His6-tag (on USPSa) or ligand-induced USP adsorption to labware or due to aggregation, we performed His6-peptide and EDTA tests, respectively ([91]). In the His6-peptide test, a control His6-peptide was used instead of USP in the binding assay described above, and if no change in initial fluorescence occurred, this confirmed the USP-specific binding of ligands. In the EDTA test, the binding buffer additionally contained 50 mM EDTA to disrupt the interaction between His6-USP and the RED-Tris-NTA dye. The complete loss of the ligand-induced initial fluorescence change in this assay confirmed that this change was neither because of protein aggregation nor because of protein adsorption to labware.
(§3) The Ka values of WT USPSa for c-di-AMP or AMP were set to 100% relative affinity, and the binding affinities of the other nucleotides (Fig. 1C), or USPSa mutants (Fig. 4E), or USP homologs (Fig. 6, B and C) were depicted as percent values compared with the values of the WT USPSa.

The target in a further assay is USPSa-WT (Staphylococcus aureus, UniProt A0A7U7EVR3). Put plainly: biochemical. The note with it: His6-USPSa WT, MST; for Kd: Dissociation Constant (KD) ± Standard Deviation, changes in initial fluorescence. In kind it is binding. As to the method: For labeling, the proteins were diluted to a concentration of 800 nM in binding buffer (50 mM potassium phosphate, pH 8.0, 800 mM NaCl, and 0.05% Tween 20), mixed with an equal volume of RED-Tris-NTA dye (80 nM), and incubated on ice in the dark for 30 min. […] The labeled proteins and the ligand dilutions were then mixed in a 1:1 ratio and incubated on ice in the dark for 30 min.
as §2, with “In the His6-peptide test, a control His6-peptide was used instead of USP in the binding assay described above, and if no change in initial fluorescence occurred, this confirmed the USP-specific binding of ligands.” left out, “dye.” for “dye. The complete loss of the ligand-induced initial fluorescence change in this assay confirmed that this change was neither because of protein aggregation nor because of protein adsorption to labware.”

The target of a further assay is USPSa-Q280A (Staphylococcus aureus, UniProt A0A7U7EVR3, Q280A). Put plainly: MicroScale Thermophoresis (initial fluorescence change) nucleotide binding. The conditions noted are these: Q280A mutant, MST, read-out: Dissociation Constant (KD) ± Standard Deviation. As to the method: as §1, §2, §3
In general terms: Microscale thermophoresis detects binding through changes in fluorescence in a small temperature gradient.

A further assay concerns the target T1, USPSa-L344A (Staphylococcus aureus, UniProt A0A7U7EVR3, L344A).
T1 sequence (A0A7U7EVR3 213-364 L344A): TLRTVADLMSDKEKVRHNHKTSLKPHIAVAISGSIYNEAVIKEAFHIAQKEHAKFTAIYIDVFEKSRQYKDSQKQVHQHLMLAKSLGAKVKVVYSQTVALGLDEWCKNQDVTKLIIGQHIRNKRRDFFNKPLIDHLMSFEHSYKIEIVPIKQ
Described as above. The conditions noted are these: L344A mutant; for Kd: MST, initial fluorescence, read-out: Dissociation Constant (KD) ± Standard Deviation. As to the method: as §1, §2, §3

Another assay addresses T2, USPSa-S244D (Staphylococcus aureus, UniProt A0A7U7EVR3, S244D).
T2 sequence (A0A7U7EVR3 213-364 S244D): T1 sequence (A0A7U7EVR3 213-364 L344A)
The assay is described as above. The note with it: S244D mutant. As to the method: as §1, §2, §3

A further assay addresses T3, USPSa-S246A (Staphylococcus aureus, UniProt A0A7U7EVR3, S246A).
T3 sequence (A0A7U7EVR3 213-364 S246A): T1 sequence (A0A7U7EVR3 213-364 L344A)
The assay is described as above. The note with it: S246A mutant; for Kd: MST, initial fluorescence, read-out: Dissociation Constant (KD) ± Standard Deviation. The protocol:
as §1, §2, §3

For the next assay, the target named is T4, USPSa-Y281F (Staphylococcus aureus, UniProt A0A7U7EVR3, Y281F).
T4 sequence (A0A7U7EVR3 213-364 Y281F): T1 sequence (A0A7U7EVR3 213-364 L344A)
The description is as above. The note with it: Y281F mutant; for Kd: MST, initial fluorescence, read-out: Dissociation Constant (KD) ± Standard Deviation. The protocol:
as §1, §2, §3

A further assay has as its target T5, USPSa-Y248A (Staphylococcus aureus, UniProt A0A7U7EVR3, Y248A).
T5 sequence (A0A7U7EVR3 213-364 Y248A): T1 sequence (A0A7U7EVR3 213-364 L344A)
The description is as above. The note with it: Y248A mutant; for Kd: MST, initial fluorescence, read-out: Dissociation Constant (KD) ± Standard Deviation. As to the method: as §1, §2, §3

The target of the next assay is T6, USPSa-A242G (Staphylococcus aureus, UniProt A0A7U7EVR3, A242G).
T6 sequence (A0A7U7EVR3 213-364 A242G): T1 sequence (A0A7U7EVR3 213-364 L344A)
Described as above. The note with it: for Kd: MST, initial fluorescence, read-out: Dissociation Constant (KD) ± Standard Deviation. The protocol: as §1, §2, §3

The next assay addresses T7, USPSa-N249A (Staphylococcus aureus, UniProt A0A7U7EVR3, N249A).
T7 sequence (A0A7U7EVR3 213-364 N249A): T1 sequence (A0A7U7EVR3 213-364 L344A)
The assay is described as above. The note with it: N249A mutant; for Kd: MST, initial fluorescence, read-out: Dissociation Constant (KD) ± Standard Deviation. The protocol: as §1, §2, §3

The target of another assay is USPSa-K282A (Staphylococcus aureus, UniProt A0A7U7EVR3, K282A). The assay is described as above. The conditions noted are these: K282A mutant, MST, read-out: Dissociation Constant (KD) ± Standard Deviation. As to the method:
as §1, §2, §3

Setting [1] is: Ka relative to WT USPSa set to 100%.

Structures are written as SMILES. Several values for one entry are separate records, joined by “and”; a condition that tells them apart may be missing. Equal values may be shown once. Read-outs that look alike come from different tables or passages of the source.

The term Kd denotes the concentration at which binding is half-saturated. Consider `Nc1ncnc2c1ncn2[C@@H]1O[C@H](COP(=O)(O)O)[C@@H](O)[C@H]1O` [AMP], for which the “binding in MST analysis (in words)” value in the assay with USPSa-S244A is recorded as “did not bind”. Also, the “Dissociation Constant (KD) ± Standard Deviation” value on USPSa-S244A is “No Binding Observed”. The Kd on USPSa-WT was determined as 2650 ± 1160 µM; at USPSa-Q280A, 1820 ± 250 µM; on USPSa-L344A it was 4140 ± 900 µM; on USPSa-S244D (MST, initial fluorescence, read-out: Dissociation Constant (KD) ± Standard Deviation) it was 4060 ± 1940 µM; at USPSa-S246A, 7250 ± 210 µM; at USPSa-Y281F, 5150 ± 350 µM. Also, the Kd came out at 5400 ± 3810 µM on USPSa-Y248A, 140 ± 10 µM at USPSa-A242G (A242G mutant), 5170 ± 3420 µM on USPSa-N249A and 1450 ± 640 µM at USPSa-K282A. Moreover, at USPSa-WT, the “binding affinity, fold lower than that of c-di-AMP” value is greater than 5000 fold. Further, the relative affinity is recorded as 40% on USPSa-L344A (setting [1]) and roughly 60% at USPSa-Y248A (setting [1]). The relative binding affinity was roughly 50% at USPSa-S244D (setting [1]) and roughly 40% on USPSa-S246A (setting [1]). The “binding relative to WT USPSa” value on USPSa-Y281F (setting [1]) is given as roughly 30%. In addition, the “improvement of binding affinity versus WT USPSa” value at USPSa-A242G (A242G mutant) is recorded as roughly 25 fold.
Take `Nc1ncnc2c1ncn2[C@@H]1O[C@@H]2COP(=O)(O)O[C@H]3[C@@H](O)[C@H](n4cnc5c(N)ncnc54)O[C@@H]3COP(=O)(O)O[C@H]2[C@H]1O` [c-di-AMP, cyclic-di-adenosine monophosphate]: in the assay on USPSa-S244A, the “binding in MST analysis (in words)” value is given as “complete loss”. Further, the “Dissociation Constant (KD) ± Standard Deviation” value is “No Binding Observed” at USPSa-S244A and “No Binding Observed” at USPSa-S244D (MST, initial fluorescence). Further, the Kd on USPSa-WT was 0.5 µM and 0.53 µM; at USPSa-Q280A, 0.87 ± 0.06 µM; at USPSa-L344A, 8.84 ± 1.09 µM; on USPSa-S246A, 1.3 ± 0.19 µM; at USPSa-Y281F it was 1.79 ± 0.84 µM; at USPSa-Y248A it was 4.22 ± 0.11 µM. Also, the Kd at USPSa-A242G (A242G mutant) turned out to be 0.01 ± 0.01 µM; at USPSa-N249A, 7.84 ± 0.34 µM; on USPSa-K282A, 0.6 ± 0.24 µM. Besides, the “binding (in words)” value at USPSa-S244D is “completely abolished”. Also, the “improvement of binding affinity versus WT USPSa” value at USPSa-A242G is roughly 50 fold. Further, the “binding affinity versus WT USPSa (in words)” value at USPSa-N249A is listed as “significant reduction”.

(Values after PMC8214093, “Structural basis of KdpD histidine kinase binding to the second messenger c-di-AMP” (The Journal of Biological Chemistry, 2021).)
